The values that follow come from ChEMBL document CHEMBL4732135, “Structural and mechanistic insights into the inhibition of amyloid-β aggregation by Aβ fragment derived synthetic peptides” (Eur J Med Chem, 2021).

Square brackets hold non-standard residues; d marks the D form. Peptide text beside a SMILES is read from it. ξ: configuration not given here. Phe(4-CF3) = N[C@@H](Cc1ccc(C(F)(F)F)cc1)C(=O)O; Bip = N[C@@H](Cc1ccc(-c2ccccc2)cc1)C(=O)O; Phe(4-Cl) = N[C@@H](Cc1ccc(Cl)cc1)C(=O)O; Oic(3aξ,7aξ) = O=C(O)[C@@H]1CC2CCCCC2N1; 4Pal = N[C@@H](Cc1ccncc1)C(=O)O; β3hP = O=C(O)C[C@@H]1CCCN1

In one assay the target is Amyloid-beta precursor protein (Homo sapiens) (UniProt P05067). Kind of assay: Inhibition of amyloid beta (1 to 42) (unknown origin) assessed as reduction in peptide aggregation at 4 uM measured after 24 hrs by thioflavin-T fluorescence assay relative to control.
Amyloid-beta precursor protein (Homo sapiens), sequence (P05067 whole entry): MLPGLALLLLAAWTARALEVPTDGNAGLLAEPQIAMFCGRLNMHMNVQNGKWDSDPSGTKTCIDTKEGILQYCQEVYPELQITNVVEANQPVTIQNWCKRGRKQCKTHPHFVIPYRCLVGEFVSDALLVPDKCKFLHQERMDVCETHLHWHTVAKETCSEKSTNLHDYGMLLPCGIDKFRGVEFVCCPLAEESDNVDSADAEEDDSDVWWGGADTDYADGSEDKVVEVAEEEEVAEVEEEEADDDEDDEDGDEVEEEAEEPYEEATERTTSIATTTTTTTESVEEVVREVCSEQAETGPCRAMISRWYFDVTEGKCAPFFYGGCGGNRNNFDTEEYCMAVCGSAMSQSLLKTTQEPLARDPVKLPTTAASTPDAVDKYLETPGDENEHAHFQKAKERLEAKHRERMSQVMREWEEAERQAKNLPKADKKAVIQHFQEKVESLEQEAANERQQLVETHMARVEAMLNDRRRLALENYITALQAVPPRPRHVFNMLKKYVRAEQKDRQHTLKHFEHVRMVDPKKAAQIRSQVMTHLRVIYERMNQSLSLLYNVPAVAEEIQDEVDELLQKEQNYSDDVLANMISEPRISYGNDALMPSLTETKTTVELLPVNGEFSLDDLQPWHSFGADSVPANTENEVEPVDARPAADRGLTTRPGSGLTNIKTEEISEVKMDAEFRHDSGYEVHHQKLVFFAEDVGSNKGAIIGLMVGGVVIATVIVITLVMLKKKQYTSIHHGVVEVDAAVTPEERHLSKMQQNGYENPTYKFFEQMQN
Conditions: not given
In the case of `CC[C@H](C)[C@H](NC(=O)C[C@@H]1CCCN1C(=O)[C@@H](N)C(C)C)C(=O)N[C@@H](C)C(=O)O` (H-V[β3hP]IA-OH), the inhibition is 99.2%.

Regarding `CC[C@H](C)[C@H](NC(=O)[C@@H](NC(=O)[C@@H](N)Cc1ccncc1)C(C)C)C(=O)N[C@@H](C)C(=O)O` (H-[4Pal]VIA-OH), the inhibition was found to be 44.2%.

`CC[C@H](C)[C@H](NC(=O)[C@@H](NC(=O)[C@@H](N)Cc1ccc(-c2ccccc2)cc1)C(C)C)C(=O)N[C@@H](C)C(=O)O` (H-[Bip]VIA-OH): the inhibition turned out to be 34.7%.

Regarding `CC[C@H](C)[C@H](NC(=O)[C@@H]1CC2CCCCC2N1C(=O)[C@@H]1CC2CCCCC2N1)C(=O)N[C@@H](C)C(=O)O` (stereo partly specified) (H-[Oic(3aξ,7aξ)][Oic(3aξ,7aξ)]IA-OH), the inhibition was 99.1%.

As for `CC[C@H](C)[C@H](NC(=O)[C@@H](NC(=O)[C@@H](N)Cc1ccc(C(F)(F)F)cc1)C(C)C)C(=O)N[C@@H](C)C(=O)O` (H-[Phe(4-CF3)]VIA-OH), the inhibition was 20.4%.

`CC[C@H](C)[C@H](NC(=O)[C@@H](NC(=O)[C@@H](N)Cc1ccc(Cl)cc1)C(C)C)C(=O)N[C@@H](C)C(=O)O` (H-[Phe(4-Cl)]VIA-OH): the inhibition was 57.4%.

The target is the same in another assay. As to the kind of experiment: Inhibition of amyloid beta (1 to 42) (unknown origin) assessed as reduction in peptide aggregation at 2 uM measured after 24 hrs by thioflavin-T fluorescence assay relative to control.
Conditions: not given
Consider `CC[C@H](C)[C@H](NC(=O)C[C@@H]1CCCN1C(=O)[C@@H](N)C(C)C)C(=O)N[C@@H](C)C(=O)O` (H-V[β3hP]IA-OH), for which the inhibition came out at 96.1%.

Take `CC[C@H](C)[C@H](NC(=O)[C@@H](NC(=O)[C@@H](N)Cc1ccncc1)C(C)C)C(=O)N[C@@H](C)C(=O)O` (H-[4Pal]VIA-OH): the inhibition was found to be 42.7%.

For the compound `CC[C@H](C)[C@H](NC(=O)[C@@H](NC(=O)[C@@H](N)Cc1ccc(-c2ccccc2)cc1)C(C)C)C(=O)N[C@@H](C)C(=O)O` (H-[Bip]VIA-OH), the inhibition is 26.4%.

Take `CC[C@H](C)[C@H](NC(=O)[C@@H]1CC2CCCCC2N1C(=O)[C@@H]1CC2CCCCC2N1)C(=O)N[C@@H](C)C(=O)O` (stereo partly specified) (H-[Oic(3aξ,7aξ)][Oic(3aξ,7aξ)]IA-OH): the inhibition stood at 100%.

For `CC[C@H](C)[C@H](NC(=O)[C@@H](NC(=O)[C@@H](N)Cc1ccc(C(F)(F)F)cc1)C(C)C)C(=O)N[C@@H](C)C(=O)O` (H-[Phe(4-CF3)]VIA-OH), the inhibition turned out to be 41.8%.

In the case of `CC[C@H](C)[C@H](NC(=O)[C@@H](NC(=O)[C@@H](N)Cc1ccc(Cl)cc1)C(C)C)C(=O)N[C@@H](C)C(=O)O` (H-[Phe(4-Cl)]VIA-OH), the inhibition was found to be 46.4%.

The test system of another assay is PC-12. Kind of assay: Neuroprotective activity against amyloid beta 42-induced toxicity in rat PC-12 cells assessed as cell viability at 4 uM measured after 6 hrs by MTT assay (reference value: 74.05%). Type of assay: functional. The settings on record: read-out: Activity.
`CC[C@H](C)[C@H](NC(=O)C[C@@H]1CCCN1C(=O)[C@@H](N)C(C)C)C(=O)N[C@@H](C)C(=O)O` (H-V[β3hP]IA-OH): the viability at 4 µM is 80.4%.

With `CC[C@H](C)[C@H](NC(=O)[C@@H](NC(=O)[C@@H](N)Cc1ccncc1)C(C)C)C(=O)N[C@@H](C)C(=O)O` (H-[4Pal]VIA-OH), the viability at 4 µM amounted to 78.2%.

`CC[C@H](C)[C@H](NC(=O)[C@@H](NC(=O)[C@@H](N)Cc1ccc(-c2ccccc2)cc1)C(C)C)C(=O)N[C@@H](C)C(=O)O` (H-[Bip]VIA-OH): the viability at 4 µM was 80.6%.

As to `CC[C@H](C)[C@H](NC(=O)[C@@H]1CC2CCCCC2N1C(=O)[C@@H]1CC2CCCCC2N1)C(=O)N[C@@H](C)C(=O)O` (stereo partly specified) (H-[Oic(3aξ,7aξ)][Oic(3aξ,7aξ)]IA-OH), the viability at 4 µM amounted to 92.9%.

In the case of `CC[C@H](C)[C@H](NC(=O)[C@@H](NC(=O)[C@@H](N)Cc1ccc(C(F)(F)F)cc1)C(C)C)C(=O)N[C@@H](C)C(=O)O` (H-[Phe(4-CF3)]VIA-OH), the viability at 4 µM came to 88.7%.

`CC[C@H](C)[C@H](NC(=O)[C@@H](NC(=O)[C@@H](N)Cc1ccc(Cl)cc1)C(C)C)C(=O)N[C@@H](C)C(=O)O` (H-[Phe(4-Cl)]VIA-OH): the viability at 4 µM came to 73.9%.

A further assay deals with Amyloid-beta precursor protein (Homo sapiens) (UniProt P05067). As to the kind of experiment: Inhibition of amyloid beta (1 to 42) (unknown origin) assessed as reduction in peptide aggregation at 10 uM measured after 24 hrs by thioflavin-T fluorescence assay relative to control.
Conditions: not given
Consider `CC[C@H](C)[C@H](NC(=O)C[C@@H]1CCCN1C(=O)[C@@H](N)C(C)C)C(=O)N[C@@H](C)C(=O)O` (H-V[β3hP]IA-OH), for which the inhibition came to 100%.

As for `CC[C@H](C)[C@H](NC(=O)[C@@H](NC(=O)[C@@H](N)Cc1ccncc1)C(C)C)C(=O)N[C@@H](C)C(=O)O` (H-[4Pal]VIA-OH), the inhibition worked out at 46%.

On to `CC[C@H](C)[C@H](NC(=O)[C@@H](NC(=O)[C@@H](N)Cc1ccc(-c2ccccc2)cc1)C(C)C)C(=O)N[C@@H](C)C(=O)O` (H-[Bip]VIA-OH), for which the inhibition is 12.9%.

Regarding `CC[C@H](C)[C@H](NC(=O)[C@@H]1CC2CCCCC2N1C(=O)[C@@H]1CC2CCCCC2N1)C(=O)N[C@@H](C)C(=O)O` (stereo partly specified) (H-[Oic(3aξ,7aξ)][Oic(3aξ,7aξ)]IA-OH), the inhibition came to 91.5%.

Turning to `CC[C@H](C)[C@H](NC(=O)[C@@H](NC(=O)[C@@H](N)Cc1ccc(C(F)(F)F)cc1)C(C)C)C(=O)N[C@@H](C)C(=O)O` (H-[Phe(4-CF3)]VIA-OH), the inhibition is 4.5%.

For the compound `CC[C@H](C)[C@H](NC(=O)[C@@H](NC(=O)[C@@H](N)Cc1ccc(Cl)cc1)C(C)C)C(=O)N[C@@H](C)C(=O)O` (H-[Phe(4-Cl)]VIA-OH), the inhibition was found to be 75.8%.

In another assay the test system is PC-12. As to the kind of experiment: Neuroprotective activity against amyloid beta 42-induced toxicity in rat PC-12 cells assessed as cell viability at 10 uM measured after 6 hrs by MTT assay (reference value: 74.05%). It counts as functional. The conditions noted are these: read-out: Activity.
As to `CC[C@H](C)[C@H](NC(=O)C[C@@H]1CCCN1C(=O)[C@@H](N)C(C)C)C(=O)N[C@@H](C)C(=O)O` (H-V[β3hP]IA-OH), the viability at 10 µM came to 66.4%.

`CC[C@H](C)[C@H](NC(=O)[C@@H](NC(=O)[C@@H](N)Cc1ccncc1)C(C)C)C(=O)N[C@@H](C)C(=O)O` (H-[4Pal]VIA-OH): the viability at 10 µM was found to be 96.8%.

Take `CC[C@H](C)[C@H](NC(=O)[C@@H](NC(=O)[C@@H](N)Cc1ccc(-c2ccccc2)cc1)C(C)C)C(=O)N[C@@H](C)C(=O)O` (H-[Bip]VIA-OH): the viability at 10 µM was 83.2%.

As for `CC[C@H](C)[C@H](NC(=O)[C@@H]1CC2CCCCC2N1C(=O)[C@@H]1CC2CCCCC2N1)C(=O)N[C@@H](C)C(=O)O` (stereo partly specified) (H-[Oic(3aξ,7aξ)][Oic(3aξ,7aξ)]IA-OH), the viability at 10 µM worked out at 88.5%.

As to `CC[C@H](C)[C@H](NC(=O)[C@@H](NC(=O)[C@@H](N)Cc1ccc(C(F)(F)F)cc1)C(C)C)C(=O)N[C@@H](C)C(=O)O` (H-[Phe(4-CF3)]VIA-OH), the viability at 10 µM amounted to 86.2%.

With `CC[C@H](C)[C@H](NC(=O)[C@@H](NC(=O)[C@@H](N)Cc1ccc(Cl)cc1)C(C)C)C(=O)N[C@@H](C)C(=O)O` (H-[Phe(4-Cl)]VIA-OH), the viability at 10 µM was 72.3%.

A further assay has as its system PC-12. Kind of assay: Neuroprotective activity against amyloid beta 42-induced toxicity in rat PC-12 cells assessed as cell viability at 2 uM measured after 6 hrs by MTT assay (reference value: 74.05%). The settings on record: read-out: Activity. It counts as functional.
Regarding `CC[C@H](C)[C@H](NC(=O)C[C@@H]1CCCN1C(=O)[C@@H](N)C(C)C)C(=O)N[C@@H](C)C(=O)O` (H-V[β3hP]IA-OH), the viability at 2 µM was determined as 91.1%.

As to `CC[C@H](C)[C@H](NC(=O)[C@@H](NC(=O)[C@@H](N)Cc1ccncc1)C(C)C)C(=O)N[C@@H](C)C(=O)O` (H-[4Pal]VIA-OH), the viability at 2 µM was 82%.

With `CC[C@H](C)[C@H](NC(=O)[C@@H](NC(=O)[C@@H](N)Cc1ccc(-c2ccccc2)cc1)C(C)C)C(=O)N[C@@H](C)C(=O)O` (H-[Bip]VIA-OH), the viability at 2 µM was 86.5%.

For `CC[C@H](C)[C@H](NC(=O)[C@@H]1CC2CCCCC2N1C(=O)[C@@H]1CC2CCCCC2N1)C(=O)N[C@@H](C)C(=O)O` (stereo partly specified) (H-[Oic(3aξ,7aξ)][Oic(3aξ,7aξ)]IA-OH), the viability at 2 µM stood at 93.2%.

For `CC[C@H](C)[C@H](NC(=O)[C@@H](NC(=O)[C@@H](N)Cc1ccc(C(F)(F)F)cc1)C(C)C)C(=O)N[C@@H](C)C(=O)O` (H-[Phe(4-CF3)]VIA-OH), the viability at 2 µM came out at 92.1%.

Take `CC[C@H](C)[C@H](NC(=O)[C@@H](NC(=O)[C@@H](N)Cc1ccc(Cl)cc1)C(C)C)C(=O)N[C@@H](C)C(=O)O` (H-[Phe(4-Cl)]VIA-OH): the viability at 2 µM amounted to 80.1%.
